Test results reported in patent publication US20130287919A1, “METHOD OF USING DIETARY INGREDIENTS DIHYDROQUERCETIN (TAXIFOLIN), ARABINOGALACTAN AND ARABINOGALACTAN IN COMBINATION WITH DIHYDROQUERCETIN (TAXIFOLIN) FOR APPLICATIONS IN FOOD PRODUCTS” (FLAVITPURE, INC., priority 2012, published 2013).
Where “and” joins values, the source holds several entries; their conditions need not be identical. Identical values can stand only once.

Experiments:
[1] = oxygen radical absorbance capacity (ORAC) assay; type: biochemical
Description: FIGS. 6 and 7 illustrate ORAC and CAP-e antioxidant tests conducted on Dihydroquercetin (taxifolin). The ORAC test measures the scavenging capacity at 37° C. of peroxyl radical induced by 2,2 -azobis-(2-amidinopropane) dihydrochloride (AAPH) using fluorescence at a wavelength of 565 nm with excitation at 540 nm. The results are calculated and expressed as milimoles of Trolox equivalents per gram. This test is widely used for evaluation and comparison of the antioxidant capacity in natural products and extracts and has been successfully applied to bioavailability studies, showing increased antioxidant capacity in serum in test subjects after consumption of antioxidant-rich foods.
Two different but synergistic testing principles are shown in FIG. 6: (A) The oxygen radical absorbance capacity (ORAC) assay is a chemical test, in which interference with specific chemical reactions are measured; (B) The cell-based antioxidant protection in erythrocytes (CAP-e) assay reflects whether antioxidants can enter into and protect live cells from oxidative damage. Dihydroquercetin (taxifolin) has the ORAChydrophilic assay over 15,000 μmol TE/g.

[2] = concentration 0.001%; cooled samples, traditional recipe; day 7 of storage; cited from earlier work
rats = details: high levels, long periods of time; cited from earlier work
serum and liver lipids = details: following exposure to toxic ionizing radiation; cited from earlier work
lipid peroxidation = details: in vitro and ex vivo; cited from earlier work
[3] = lard, cottonseed oil, and butter oil; cited from earlier work
[4] = milks produced during the dry-lot regime; cited from earlier work

SMILES: O=C1c2c(O)cc(O)cc2OC(c2ccc(O)c(O)c2)C1O (stereo not shown) [Dihydroquercetin (taxifolin)]
- ORAChydrophilic assay [1]: over 15,000 μmol TE/g
- peroxide values lower by [2]: 57.1% and 58.60%
- toxic effects (rats): No toxic effects were observed
- peroxidation of serum and liver lipids (serum and liver lipids): inhibited
- lipid peroxidation (lipid peroxidation): inhibits
- antioxidant effect [3]: effective antioxidant
- development of spontaneous oxidation [4]: inhibited
